14 compounds from patent publication US20200060276A1, “THIAZOLE COMPOUND AND HERBICIDE” (OAT Agrio Co., Ltd., priority 2017, published 2020) can be followed below.

Type in all cases: in vivo
For one test, the system named is Scirpus juncoides. The test can be described thus: Test for Herbicidal Effect in Flooding Treatment (#1), SCIJU. The settings on record: for SCIJU #1 herbicidal effect (growth inhibition grade): flooding treatment at seeding, dose 2 kg/ha, visual observation on day 21. Summed up: (§1)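 Flooded soil in cups was seeded 24 h after flooding, then treated with compound in acetone diluted with Tween 80-containing water, dropped onto the water surface at 2 kg/ha. After growth in a glasshouse, growth inhibition was scored visually on day 21 on a 0 (<10%) to 5 (≥90% or complete withering) scale.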

In test [1] the test system is Echinochloa crus-galli (L.) P. Beauv. var. formosensis Ohwi. As to the kind of experiment: Test for Herbicidal Effect in Flooding Treatment (#2), ECHDG at 2-2.5 leaf stage. To be noted: for ECHDG (2-2.5L) #2 herbicidal effect (growth inhibition grade): flooding treatment at 2-2.5 leaf stage, dose 0.2 kg/ha, visual observation on day 21. The gist of the method: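 Flooded muddy soil was seeded with the weed, and at 2–2.5 leaf stage compound in acetone/Tween 80 water was dropped on the water surface at 0.2 kg/ha. Plants were kept in a glasshouse and scored visually on day 21 from 0 (<10% growth inhibition) to 5 (≥90% or complete withering).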

Another test deals with Monochoria vaginalis. As to the kind of experiment: Test for Herbicidal Effect in Flooding Treatment (#1), MONVA. To be noted: for MONVA #1 herbicidal effect (growth inhibition grade): flooding treatment at seeding, dose 2 kg/ha, visual observation on day 21. Summed up:
as §1

For test [2], the system named is Echinochloa crus-galli (L.) P. Beauv. var. formosensis Ohwi. As to the kind of experiment: Test for Herbicidal Effect in Flooding Treatment (#1), ECHDG. To be noted: for ECHDG #1 herbicidal effect (growth inhibition grade): flooding treatment at seeding, dose 2 kg/ha, visual observation on day 21. The gist of the method: as §1

Turning to `COc1cccc(Cl)c1C[S+]([O-])c1ncc(Cl)s1` (centres unmarked) [Compound 1B-1], the “SCIJU #1 herbicidal effect (growth inhibition rating 0-5)” value in the test on Scirpus juncoides (flooding treatment #1) was 4 (Growth inhibition effect is equal to or greater than 70%, and less than 90%). Moreover, the “ECHDG (2-2.5L) #2 herbicidal effect (growth inhibition rating 0-5)” value in test [1] (flooding treatment #2, 2-2.5 leaf stage) was 4 (Growth inhibition effect is equal to or greater than 70%, and less than 90%). In addition, the “MONVA #1 herbicidal effect (growth inhibition rating 0-5)” value in the test on Monochoria vaginalis (flooding treatment #1) was 3 (Growth inhibition effect equal to or greater than 50%, and less than 70%). In addition, in test [2] (flooding treatment #1), the “ECHDG #1 herbicidal effect (growth inhibition rating 0-5)” value is 5 (Growth inhibition effect is equal to or greater than 90%, or complete withering is achieved).
Take `O=S(=O)(Cc1c(F)cccc1OCC(F)(F)C(F)(F)F)c1ncc(Cl)s1` [Compound 1C-61]: the “SCIJU #1 herbicidal effect (growth inhibition grade)” value in the test on Scirpus juncoides is 5 (Growth inhibition effect is equal to or greater than 90%, or complete withering is achieved). Further, in test [1], the “ECHDG (2-2.5L) #2 herbicidal effect (growth inhibition grade)” value is 5 (Growth inhibition effect is equal to or greater than 90%, or complete withering is achieved). Further, the “MONVA #1 herbicidal effect (growth inhibition grade)” value in the test with Monochoria vaginalis is recorded as 5 (Growth inhibition effect is equal to or greater than 90%, or complete withering is achieved). Besides, in test [2], the “ECHDG #1 herbicidal effect (growth inhibition grade)” value is 5 (Growth inhibition effect is equal to or greater than 90%, or complete withering is achieved).
For the compound `CC(=O)C(c1c(F)cccc1OC(F)F)S(=O)(=O)c1ncc(Cl)s1` (racemic) [Compound 1C-146], the “SCIJU #1 herbicidal effect (growth inhibition grade)” value in the test on Scirpus juncoides is on record as 5 (Growth inhibition effect is equal to or greater than 90%, or complete withering is achieved). In addition, in test [1], the “ECHDG (2-2.5L) #2 herbicidal effect (growth inhibition grade)” value was 5 (Growth inhibition effect is equal to or greater than 90%, or complete withering is achieved). For the same compound, in the test with Monochoria vaginalis, the “MONVA #1 herbicidal effect (growth inhibition grade)” value is 5 (Growth inhibition effect is equal to or greater than 90%, or complete withering is achieved). For the same compound, in test [2], the “ECHDG #1 herbicidal effect (growth inhibition grade)” value was 5 (Growth inhibition effect is equal to or greater than 90%, or complete withering is achieved).
In the case of `CC(c1c(F)cccc1OCC(F)(F)C(F)F)S(=O)(=O)c1ncc(Cl)s1` (centres unmarked) [Compound 1C-148], in the test on Scirpus juncoides, the “SCIJU #1 herbicidal effect (growth inhibition grade)” value was 5 (Growth inhibition effect is equal to or greater than 90%, or complete withering is achieved). For the same compound, in test [1], the “ECHDG (2-2.5L) #2 herbicidal effect (growth inhibition grade)” value was 5 (Growth inhibition effect is equal to or greater than 90%, or complete withering is achieved). The “MONVA #1 herbicidal effect (growth inhibition grade)” value with Monochoria vaginalis is listed as 5 (Growth inhibition effect is equal to or greater than 90%, or complete withering is achieved). Further, the “ECHDG #1 herbicidal effect (growth inhibition grade)” value in test [2] is given as 5 (Growth inhibition effect is equal to or greater than 90%, or complete withering is achieved).
As to `CC(c1c(F)cccc1OCC(F)F)S(=O)(=O)c1ncc(Cl)s1` (racemic) [Compound 1C-142], in the test with Scirpus juncoides, the “SCIJU #1 herbicidal effect (growth inhibition grade)” value is 5 (Growth inhibition effect is equal to or greater than 90%, or complete withering is achieved). In addition, in test [1], the “ECHDG (2-2.5L) #2 herbicidal effect (growth inhibition grade)” value was 5 (Growth inhibition effect is equal to or greater than 90%, or complete withering is achieved). Besides, in the test on Monochoria vaginalis, the “MONVA #1 herbicidal effect (growth inhibition grade)” value is listed as 5 (Growth inhibition effect is equal to or greater than 90%, or complete withering is achieved). For the same compound, the “ECHDG #1 herbicidal effect (growth inhibition grade)” value in test [2] was 5 (Growth inhibition effect is equal to or greater than 90%, or complete withering is achieved).
For `CC(=O)C(C(C)=O)(c1c(F)cccc1OC(F)F)S(=O)(=O)c1ncc(Cl)s1` [Compound 1C-147], the “SCIJU #1 herbicidal effect (growth inhibition grade)” value with Scirpus juncoides was 5 (Growth inhibition effect is equal to or greater than 90%, or complete withering is achieved). The “ECHDG (2-2.5L) #2 herbicidal effect (growth inhibition grade)” value in test [1] is on record as 5 (Growth inhibition effect is equal to or greater than 90%, or complete withering is achieved). Moreover, the “MONVA #1 herbicidal effect (growth inhibition grade)” value in the test on Monochoria vaginalis is 5 (Growth inhibition effect is equal to or greater than 90%, or complete withering is achieved). Besides, the “ECHDG #1 herbicidal effect (growth inhibition grade)” value in test [2] is recorded as 5 (Growth inhibition effect is equal to or greater than 90%, or complete withering is achieved).
Consider `O=S(=O)(Cc1c(Cl)cccc1OCC(F)(F)C(F)(F)F)c1ncc(Cl)s1` [Compound 1C-62], for which the “SCIJU #1 herbicidal effect (growth inhibition grade)” value in the test on Scirpus juncoides was 5 (Growth inhibition effect is equal to or greater than 90%, or complete withering is achieved). Further, the “ECHDG (2-2.5L) #2 herbicidal effect (growth inhibition grade)” value in test [1] is 4 (Growth inhibition effect is equal to or greater than 70%, and less than 90%). The “MONVA #1 herbicidal effect (growth inhibition grade)” value in the test on Monochoria vaginalis is given as 5 (Growth inhibition effect is equal to or greater than 90%, or complete withering is achieved). The “ECHDG #1 herbicidal effect (growth inhibition grade)” value in test [2] is reported as 5 (Growth inhibition effect is equal to or greater than 90%, or complete withering is achieved).
For `O=S(=O)(Cc1ccccc1OCC(F)(F)F)c1ncc(Cl)s1` [Compound 1C-53], in the test on Scirpus juncoides, the “SCIJU #1 herbicidal effect (growth inhibition grade)” value is 5 (Growth inhibition effect is equal to or greater than 90%, or complete withering is achieved). The “ECHDG (2-2.5L) #2 herbicidal effect (growth inhibition grade)” value in test [1] is listed as 5 (Growth inhibition effect is equal to or greater than 90%, or complete withering is achieved). The “MONVA #1 herbicidal effect (growth inhibition grade)” value in the test on Monochoria vaginalis was 5 (Growth inhibition effect is equal to or greater than 90%, or complete withering is achieved). Further, the “ECHDG #1 herbicidal effect (growth inhibition grade)” value in test [2] was 5 (Growth inhibition effect is equal to or greater than 90%, or complete withering is achieved).
Turning to `O=S(=O)(Cc1c(F)cccc1OCCCC(F)(F)F)c1ncc(Cl)s1` [Compound 1C-63], the “SCIJU #1 herbicidal effect (growth inhibition grade)” value in the test with Scirpus juncoides is on record as 5 (Growth inhibition effect is equal to or greater than 90%, or complete withering is achieved). In addition, in test [1], the “ECHDG (2-2.5L) #2 herbicidal effect (growth inhibition grade)” value is 3 (Growth inhibition effect equal to or greater than 50%, and less than 70%). The “MONVA #1 herbicidal effect (growth inhibition grade)” value in the test on Monochoria vaginalis is 5 (Growth inhibition effect is equal to or greater than 90%, or complete withering is achieved). Moreover, the “ECHDG #1 herbicidal effect (growth inhibition grade)” value in test [2] is on record as 5 (Growth inhibition effect is equal to or greater than 90%, or complete withering is achieved).
On to `O=S(=O)(Cc1c(F)cccc1OC(F)F)c1ncc(Br)s1` [Compound 1C-153], for which the “SCIJU #1 herbicidal effect (growth inhibition grade)” value with Scirpus juncoides is 5 (Growth inhibition effect is equal to or greater than 90%, or complete withering is achieved). Further, in test [1], the “ECHDG (2-2.5L) #2 herbicidal effect (growth inhibition grade)” value is listed as 5 (Growth inhibition effect is equal to or greater than 90%, or complete withering is achieved). The “MONVA #1 herbicidal effect (growth inhibition grade)” value with Monochoria vaginalis is on record as 5 (Growth inhibition effect is equal to or greater than 90%, or complete withering is achieved). Further, in test [2], the “ECHDG #1 herbicidal effect (growth inhibition grade)” value is on record as 5 (Growth inhibition effect is equal to or greater than 90%, or complete withering is achieved).
On to `COC(=O)C(c1c(F)cccc1OC(F)F)S(=O)(=O)c1ncc(Cl)s1` (racemic) [Compound 1C-145], for which the “SCIJU #1 herbicidal effect (growth inhibition grade)” value in the test with Scirpus juncoides is 5 (Growth inhibition effect is equal to or greater than 90%, or complete withering is achieved). The “ECHDG (2-2.5L) #2 herbicidal effect (growth inhibition grade)” value in test [1] is on record as 5 (Growth inhibition effect is equal to or greater than 90%, or complete withering is achieved). The “MONVA #1 herbicidal effect (growth inhibition grade)” value in the test on Monochoria vaginalis was 5 (Growth inhibition effect is equal to or greater than 90%, or complete withering is achieved). For the same compound, the “ECHDG #1 herbicidal effect (growth inhibition grade)” value in test [2] is 5 (Growth inhibition effect is equal to or greater than 90%, or complete withering is achieved).
As to `[2H]C([2H])(c1c(Cl)cccc1OC(F)F)S(=O)(=O)c1ncc(Cl)s1` [Compound 1C-132], in the test on Scirpus juncoides, the “SCIJU #1 herbicidal effect (growth inhibition grade)” value is recorded as 5 (Growth inhibition effect is equal to or greater than 90%, or complete withering is achieved). For the same compound, the “ECHDG (2-2.5L) #2 herbicidal effect (growth inhibition grade)” value in test [1] is reported as 5 (Growth inhibition effect is equal to or greater than 90%, or complete withering is achieved). In addition, the “MONVA #1 herbicidal effect (growth inhibition grade)” value in the test with Monochoria vaginalis was 5 (Growth inhibition effect is equal to or greater than 90%, or complete withering is achieved). Also, in test [2], the “ECHDG #1 herbicidal effect (growth inhibition grade)” value is recorded as 5 (Growth inhibition effect is equal to or greater than 90%, or complete withering is achieved).
Consider `O=S(=O)(Cc1c(F)cccc1OCC(F)(F)C(F)F)c1ncc(Br)s1` [Compound 1C-164], for which the “SCIJU #1 herbicidal effect (growth inhibition grade)” value in the test with Scirpus juncoides was 5 (Growth inhibition effect is equal to or greater than 90%, or complete withering is achieved). Also, in test [1], the “ECHDG (2-2.5L) #2 herbicidal effect (growth inhibition grade)” value is 5 (Growth inhibition effect is equal to or greater than 90%, or complete withering is achieved). In the test with Monochoria vaginalis, the “MONVA #1 herbicidal effect (growth inhibition grade)” value is reported as 5 (Growth inhibition effect is equal to or greater than 90%, or complete withering is achieved). For the same compound, the “ECHDG #1 herbicidal effect (growth inhibition grade)” value in test [2] was 5 (Growth inhibition effect is equal to or greater than 90%, or complete withering is achieved).
With `O=S(=O)(Cc1c(OC(F)F)ccc(Cl)c1F)c1ncc(Br)s1` [Compound 1C-157], the “SCIJU #1 herbicidal effect (growth inhibition grade)” value with Scirpus juncoides was 5 (Growth inhibition effect is equal to or greater than 90%, or complete withering is achieved). Moreover, in test [1], the “ECHDG (2-2.5L) #2 herbicidal effect (growth inhibition grade)” value was 5 (Growth inhibition effect is equal to or greater than 90%, or complete withering is achieved). The “MONVA #1 herbicidal effect (growth inhibition grade)” value in the test on Monochoria vaginalis was 5 (Growth inhibition effect is equal to or greater than 90%, or complete withering is achieved). In test [2], the “ECHDG #1 herbicidal effect (growth inhibition grade)” value was 5 (Growth inhibition effect is equal to or greater than 90%, or complete withering is achieved).
